Data from ChEMBL document CHEMBL4387721, “Proteolysis targeting chimeras (PROTACs) in 'beyond rule-of-five' chemical space: Recent progress and future challenges” (Bioorg Med Chem Lett, 2019).

What was measured:
Format in all cases: cell-based
[1] = molecular target: T1, von Hippel-Lindau disease tumor suppressor/Bromodomain-containing protein 4 (Homo sapiens, UniProt O60885+P40337); test: Protac activity at VHL/BRD4 in human HeLa cells assessed as induction of BRD4 protein degradation at 50 nM up to 36 hrs by Western blot analysis relative to control
T1 sequence (P40337 whole entry, looked up, other chains not shown): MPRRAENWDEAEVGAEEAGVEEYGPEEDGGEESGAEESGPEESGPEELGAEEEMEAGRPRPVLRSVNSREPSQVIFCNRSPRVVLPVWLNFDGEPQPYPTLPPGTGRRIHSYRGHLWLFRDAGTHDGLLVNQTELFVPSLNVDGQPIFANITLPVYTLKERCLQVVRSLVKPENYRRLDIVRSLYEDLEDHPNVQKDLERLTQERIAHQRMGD

[2] = molecular target: T1, von Hippel-Lindau disease tumor suppressor/Bromodomain-containing protein 4; test: Protac activity at VHL/BRD4 in human 22Rv1 cells assessed as induction of BRD4 protein degradation incubated for 16 hrs by Western blot analysis relative to control
[3] = molecular target: von Hippel-Lindau disease tumor suppressor/Bromodomain-containing protein 2 (Homo sapiens, UniProt P25440+P40337); test: Protac activity at VHL/BRD2 in human 22Rv1 cells assessed as induction of BRD2 protein degradation incubated for 16 hrs by Western blot analysis
[4] = molecular target: T2, Protein cereblon/Cyclin-dependent kinase 9 (Homo sapiens, UniProt P50750+Q96SW2); test: Protac activity at CRBN/CDK9 in human HCT116 cells assessed as induction of CDK9 protein degradation after 6 hrs by Western blot analysis
[5] = molecular target: T3, von Hippel-Lindau disease tumor suppressor/Receptor-type tyrosine-protein kinase FLT3 (Homo sapiens, UniProt P36888+P40337); test: Protac activity at VHL/FLT3 in human MOLM14 cells assessed as induction of FLT3 protein degradation at 50 nM measured after 4 hrs by immunoblot analysis relative to control
Target sequence in this assay (P36888 27-993 limits assumed): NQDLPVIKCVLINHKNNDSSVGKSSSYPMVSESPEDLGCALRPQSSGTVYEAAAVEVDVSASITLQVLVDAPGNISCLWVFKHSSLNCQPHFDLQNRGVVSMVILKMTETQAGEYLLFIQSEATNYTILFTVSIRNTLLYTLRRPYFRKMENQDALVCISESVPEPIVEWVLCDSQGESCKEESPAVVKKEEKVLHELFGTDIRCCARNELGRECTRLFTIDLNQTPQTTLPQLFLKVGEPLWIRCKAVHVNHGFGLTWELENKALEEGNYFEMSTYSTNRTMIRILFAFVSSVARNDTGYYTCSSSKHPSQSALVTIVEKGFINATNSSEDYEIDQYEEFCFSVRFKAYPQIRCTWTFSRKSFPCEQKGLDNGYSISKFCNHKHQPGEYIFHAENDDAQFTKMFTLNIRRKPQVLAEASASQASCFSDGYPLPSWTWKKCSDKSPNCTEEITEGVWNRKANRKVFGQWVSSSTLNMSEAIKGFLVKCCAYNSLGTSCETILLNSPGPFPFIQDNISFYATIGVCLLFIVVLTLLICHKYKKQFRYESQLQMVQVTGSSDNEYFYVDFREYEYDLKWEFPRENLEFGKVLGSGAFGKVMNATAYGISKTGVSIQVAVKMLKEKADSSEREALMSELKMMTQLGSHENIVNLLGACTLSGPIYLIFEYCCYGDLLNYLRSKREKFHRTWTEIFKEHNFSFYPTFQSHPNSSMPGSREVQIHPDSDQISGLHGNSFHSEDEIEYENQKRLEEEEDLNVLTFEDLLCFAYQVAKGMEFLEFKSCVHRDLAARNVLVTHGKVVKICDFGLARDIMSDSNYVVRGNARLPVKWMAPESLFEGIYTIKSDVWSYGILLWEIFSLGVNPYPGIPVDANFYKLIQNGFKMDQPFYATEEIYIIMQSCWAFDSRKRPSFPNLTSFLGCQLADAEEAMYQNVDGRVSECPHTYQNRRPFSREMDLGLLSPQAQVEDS
Target sequence in this assay (P40337 whole entry partner): as the sequence (P40337 whole entry, looked up, other chains not shown) above

[6] = molecular target: T3, von Hippel-Lindau disease tumor suppressor/Receptor-type tyrosine-protein kinase FLT3; test: Protac activity at VHL/FLT3 in human MOLM14 cells assessed as induction of FLT3 protein degradation measured after 4 hrs by immunoblot analysis
Target sequence in this assay (P36888 whole entry): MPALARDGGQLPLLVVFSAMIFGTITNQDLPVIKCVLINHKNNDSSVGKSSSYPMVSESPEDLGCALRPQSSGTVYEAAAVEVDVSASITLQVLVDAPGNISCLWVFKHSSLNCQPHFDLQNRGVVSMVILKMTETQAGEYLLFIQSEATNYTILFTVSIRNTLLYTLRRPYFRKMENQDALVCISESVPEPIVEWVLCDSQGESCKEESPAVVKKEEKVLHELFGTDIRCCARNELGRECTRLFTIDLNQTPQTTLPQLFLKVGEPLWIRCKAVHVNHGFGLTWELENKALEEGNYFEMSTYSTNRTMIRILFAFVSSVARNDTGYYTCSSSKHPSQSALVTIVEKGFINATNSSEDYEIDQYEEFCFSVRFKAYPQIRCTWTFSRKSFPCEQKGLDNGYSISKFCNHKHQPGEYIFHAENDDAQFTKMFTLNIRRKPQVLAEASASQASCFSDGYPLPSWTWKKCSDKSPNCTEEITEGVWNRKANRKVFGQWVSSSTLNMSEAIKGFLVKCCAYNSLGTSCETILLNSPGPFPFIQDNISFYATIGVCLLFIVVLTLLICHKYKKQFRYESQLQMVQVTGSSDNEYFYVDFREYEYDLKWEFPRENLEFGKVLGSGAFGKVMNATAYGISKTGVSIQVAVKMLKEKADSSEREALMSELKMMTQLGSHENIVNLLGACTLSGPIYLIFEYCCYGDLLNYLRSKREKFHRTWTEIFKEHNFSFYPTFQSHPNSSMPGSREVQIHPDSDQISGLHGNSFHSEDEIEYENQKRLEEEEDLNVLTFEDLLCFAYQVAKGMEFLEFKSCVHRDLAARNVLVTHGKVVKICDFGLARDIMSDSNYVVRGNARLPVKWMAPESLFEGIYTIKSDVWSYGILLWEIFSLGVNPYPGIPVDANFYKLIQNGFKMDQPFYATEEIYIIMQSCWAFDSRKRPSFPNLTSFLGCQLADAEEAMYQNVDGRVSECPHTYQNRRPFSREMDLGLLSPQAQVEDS
Target sequence in this assay (P40337 whole entry): as the sequence (P40337 whole entry, looked up, other chains not shown) above

[7] = molecular target: von Hippel-Lindau disease tumor suppressor/Receptor-interacting serine/threonine-protein kinase 2 (Homo sapiens) (UniProt O43353+P40337); test: Protac activity at VHL/RIPK2 in human THP1 cells assessed as induction of RIPK2 protein degradation at 10 nM incubated for 16 hrs by Western blot analysis relative to control
Chain of von Hippel-Lindau disease tumor suppressor/Receptor-interacting serine/threonine-protein kinase 2 (Homo sapiens) (O43353 whole entry, looked up): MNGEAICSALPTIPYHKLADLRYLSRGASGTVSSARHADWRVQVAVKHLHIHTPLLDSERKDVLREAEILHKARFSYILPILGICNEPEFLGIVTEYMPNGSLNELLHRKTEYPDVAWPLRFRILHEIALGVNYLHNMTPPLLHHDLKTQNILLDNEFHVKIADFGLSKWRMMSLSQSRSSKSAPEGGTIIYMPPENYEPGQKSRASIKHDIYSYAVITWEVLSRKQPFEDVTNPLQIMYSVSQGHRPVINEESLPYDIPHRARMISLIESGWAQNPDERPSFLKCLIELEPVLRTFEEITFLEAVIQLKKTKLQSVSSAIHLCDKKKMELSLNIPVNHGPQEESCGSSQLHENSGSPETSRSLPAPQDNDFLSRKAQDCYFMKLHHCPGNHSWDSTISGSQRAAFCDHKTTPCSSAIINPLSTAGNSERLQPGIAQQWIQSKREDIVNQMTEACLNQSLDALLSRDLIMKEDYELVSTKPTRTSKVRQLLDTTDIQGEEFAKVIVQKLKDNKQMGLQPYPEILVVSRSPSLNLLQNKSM
Chain of von Hippel-Lindau disease tumor suppressor/Receptor-interacting serine/threonine-protein kinase 2 (Homo sapiens) (P40337 whole entry, looked up): as the sequence (P40337 whole entry, looked up, other chains not shown) above

[8] = molecular target: T4, von Hippel-Lindau disease tumor suppressor/Steroid hormone receptor ERR1 (Homo sapiens, UniProt P11474+P40337); test: Protac activity at VHL/ERRalpha in epoxomicin pre-treated human MCF7 cells assessed as induction of ERRalpha protein degradation incubated for 8 hrs by Western blot analysis
[9] = molecular target: T4, von Hippel-Lindau disease tumor suppressor/Steroid hormone receptor ERR1; test: Protac activity at VHL/ERRalpha in epoxomicin pre-treated human MCF7 cells assessed as induction of ERRalpha protein degradation at 1 uM incubated for 8 hrs by Western blot analysis relative to control
[10] = molecular target: T5, Protein cereblon/Tyrosine-protein kinase BTK (Homo sapiens, UniProt Q06187+Q96SW2); test: Protac activity at CRBN/BTK in human Ramos cells assessed as induction of BTK protein degradation incubated for 24 hrs by Western blot analysis
[11] = molecular target: T5, Protein cereblon/Tyrosine-protein kinase BTK; test: Protac activity at CRBN/BTK in human Ramos cells assessed as induction of BTK protein degradation at 300 nM incubated for 24 hrs by Western blot analysis relative to control
[12] = molecular target: T6, Protein cereblon/Tyrosine-protein kinase BTK (Homo sapiens, UniProt Q06187+Q96SW2, C481S); test: Protac activity at CRBN/BTK C481S mutant in human MCL cells assessed as induction of BTK C481S mutant degradation
T6 sequence (Q06187 2-659 C481S limits assumed, stated change not applied): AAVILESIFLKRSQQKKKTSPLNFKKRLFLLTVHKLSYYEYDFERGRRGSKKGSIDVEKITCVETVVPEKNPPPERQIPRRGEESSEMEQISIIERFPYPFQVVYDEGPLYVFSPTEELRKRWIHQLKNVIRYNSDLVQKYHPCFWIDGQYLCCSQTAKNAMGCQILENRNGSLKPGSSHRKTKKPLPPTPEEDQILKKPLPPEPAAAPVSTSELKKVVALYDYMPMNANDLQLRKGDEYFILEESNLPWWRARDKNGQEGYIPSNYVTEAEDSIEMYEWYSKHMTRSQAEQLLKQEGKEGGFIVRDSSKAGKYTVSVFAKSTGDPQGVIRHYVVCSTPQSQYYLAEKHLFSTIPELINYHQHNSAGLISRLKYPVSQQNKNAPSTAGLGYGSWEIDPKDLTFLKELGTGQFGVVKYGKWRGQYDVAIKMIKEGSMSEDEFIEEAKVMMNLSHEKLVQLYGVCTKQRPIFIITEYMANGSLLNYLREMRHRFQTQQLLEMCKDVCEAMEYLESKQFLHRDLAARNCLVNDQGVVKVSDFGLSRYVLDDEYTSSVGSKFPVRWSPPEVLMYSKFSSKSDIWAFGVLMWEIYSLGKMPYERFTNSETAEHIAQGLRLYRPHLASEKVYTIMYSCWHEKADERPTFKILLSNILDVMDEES
T6 sequence (Q96SW2 whole entry, stated change not applied): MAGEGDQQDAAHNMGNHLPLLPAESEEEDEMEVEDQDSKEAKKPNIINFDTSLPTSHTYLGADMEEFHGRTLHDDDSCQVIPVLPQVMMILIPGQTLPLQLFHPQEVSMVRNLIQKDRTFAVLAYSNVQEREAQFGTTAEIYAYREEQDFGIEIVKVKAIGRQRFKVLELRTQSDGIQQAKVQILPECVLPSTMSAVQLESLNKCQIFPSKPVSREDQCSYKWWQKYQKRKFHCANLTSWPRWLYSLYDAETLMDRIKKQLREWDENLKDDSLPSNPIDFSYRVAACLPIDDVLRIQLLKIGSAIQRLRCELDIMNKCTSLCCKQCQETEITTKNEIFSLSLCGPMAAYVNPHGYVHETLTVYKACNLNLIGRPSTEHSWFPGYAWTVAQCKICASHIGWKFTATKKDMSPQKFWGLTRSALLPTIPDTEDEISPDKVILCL

[13] = molecular target: T6, Protein cereblon/Tyrosine-protein kinase BTK; test: Protac activity at CRBN/BTK C481S mutant in human MM cells assessed as induction of BTK C481S mutant protein degradation
[14] = tested on: Protein cereblon/Tyrosine-protein kinase BTK (Homo sapiens), Q06187+Q96SW2 [C481S]; test: Protac activity at CRBN/BTK C481S mutant in human MM cells assessed as induction of BTK C481S mutant protein degradation at 500 nM relative to control
[15] = tested on: Protein cereblon/Tyrosine-protein kinase BTK (Homo sapiens), Q06187+Q96SW2 [C481S]; test: Protac activity at CRBN/BTK C481S mutant in human MCL cells assessed as induction of BTK C481S mutant degradation at 500 nM relative to control
[16] = molecular target: T2, Protein cereblon/Cyclin-dependent kinase 9; test: Protac activity at CRBN/CDK9 in human HCT116 cells assessed as induction of CDK9 protein degradation at 20 uM after 6 hrs by Western blot analysis relative to control
[17] = molecular target: T7, E3 ubiquitin-protein ligase XIAP/Tyrosine-protein kinase ABL1/Breakpoint cluster region protein (Homo sapiens, UniProt P00519+P98170+P11274); test: Protac activity at BCR-ABL/XIAP in human K562 cells assessed as induction of ABL protein degradation at 100 nM after 6 hrs by Western blot analysis relative to control
[18] = molecular target: T7, E3 ubiquitin-protein ligase XIAP/Tyrosine-protein kinase ABL1/Breakpoint cluster region protein; test: Protac activity at BCR-ABL/XIAP in human K562 cells assessed as induction of ABL protein degradation after 6 hrs by Western blot analysis

## Cc1ncsc1-c1ccc(CNC(=O)[C@@H]2C[C@@H](O)CN2C(=O)[C@@H](NC(=O)COCCOCCOCCNC(=O)C[C@@H]2N=C(c3ccc(Cl)cc3)c3c(sc(C)c3C)-n3c(C)nnc32)C(C)(C)C)cc1
[1]
  Emax: > 96%

## Cc1ncsc1-c1ccc([C@H](C)NC(=O)[C@@H]2C[C@@H](O)CN2C(=O)[C@@H](NC(=O)COCCCOCCNC(=O)C[C@@H]2N=C(c3ccc(Cl)cc3)c3c(sc(C)c3C)-n3c(C)nnc32)C(C)(C)C)cc1
[2]
  Emax: > 99%
[3]
  DC50: < 5 nM

## O=C1CCC(N2C(=O)c3cccc(OCCCCCOc4ccc(CC(=O)Nc5cc(C6CCC6)n[nH]5)cc4)c3C2=O)C(=O)N1 (stereo not drawn)
[4]
  DC50: 10 µM

## Cc1ncsc1-c1ccc(CNC(=O)[C@@H]2C[C@@H](O)CN2C(=O)[C@@H](NC(=O)CCOCCOCCOc2ccc3c(c2)sc2nc(-c4ccc(NC(=O)Nc5cc(C(C)(C)C)on5)cc4)cn23)C(C)(C)C)cc1
[5]
  Emax: > 90%
[6]
  DC50: < 5 nM

## Cc1ncsc1-c1ccc(CNC(=O)[C@@H]2C[C@@H](O)CN2C(=O)[C@@H](NC(=O)COCCOCCOCCOCCOc2cc3nccc(Nc4ccc5scnc5c4)c3cc2S(=O)(=O)C(C)(C)C)C(C)(C)C)cc1
[7]
  Emax: > 95%

## COc1cc(/C=C2\SC(=O)N(CCOCCC(=O)N[C@H](C(=O)N3C[C@H](O)C[C@H]3C(=O)NCc3ccc(-c4scnc4C)cc3)C(C)(C)C)C2=O)ccc1Oc1ccc(C#N)cc1C(F)(F)F
[8]
  DC50: 100 nM
[9]
  Emax: 86%

## NC(=O)c1c(-c2ccc(Oc3ccc(F)cc3F)cc2)nn([C@@H]2CCCN(C(=O)OCCOCCOCCOCCOCCOCCNc3cccc4c3C(=O)N(C3CCC(=O)NC3=O)C4=O)C2)c1N (stereo partly drawn)
[10]
  DC50: 1.1 nM
[11]
  Emax: 87%

## Nc1ncnc2c1c(-c1ccc(Oc3ccccc3)cc1)nn2[C@@H]1CCCN(C(=O)c2cn(CCOCCOCCOCCNc3cccc4c3C(=O)N(C3CCC(=O)NC3=O)C4=O)nn2)C1 (stereo partly drawn)
[12]
  DC50: > 6 nM
[13]
  DC50: < 12 nM
[14]
  Emax: > 94%
[15]
  Emax: > 94%

## O=C1CCC(N2C(=O)c3cccc(OCCCCCOc4ccc(CC(=O)Nc5cc(C6CCC6)[nH]n5)cc4)c3C2=O)C(=O)N1 (stereo not drawn)
[16]
  Emax: > 65%

## CN[C@@H](C)C(=O)N[C@H](C(=O)N1CCC[C@H]1c1nc(C(=O)c2cccc(OCCOCCOCCOCC(=O)N3CCN(c4cc(Nc5ncc(C(=O)Nc6c(C)cccc6Cl)s5)nc(C)n4)CC3)c2)cs1)C1CCCCC1
[17]
  Emax: > 90%
[18]
  DC50: 3 to 10 nM
